Patent US6605638B1, “Use of branched chain fatty acids and derivatives thereof for inhibition of P-glycoprotein” (D-Pharm Limited, priority 2000, dated 2003)

Experiments:
P-glycoprotein [1] = molecular target: T1, P-glycoprotein (Bos taurus, UniProt A0A3Q1MB23); test: Vincristine accumulation (uptake) in endothelial cells, in vitro BBB model
[2] = tested on: endothelial cell monolayers; test: [14C]-sucrose permeability (integrity) of endothelial cell monolayers, in vitro BBB model
P-glycoprotein [3] = molecular target: T1, P-glycoprotein; test: Vincristine transport/clearance across endothelial cell monolayers, in vitro BBB co-culture model; type: cell-based, bovine; set-up: P-glycoprotein is expressed in cultured endothelial cells; endogenous in cells; host or cells: primary bovine brain capillary endothelial cells, co-cultured with newborn rat astrocytes in the lower compartment
MES-SA/Dx5 cells = test: MTT assay of doxorubicin toxicity in multi-drug resistant cells; settings: for % Toxicity: alone, 72 hours

T1 sequence (A0A3Q1MB23 1-1267): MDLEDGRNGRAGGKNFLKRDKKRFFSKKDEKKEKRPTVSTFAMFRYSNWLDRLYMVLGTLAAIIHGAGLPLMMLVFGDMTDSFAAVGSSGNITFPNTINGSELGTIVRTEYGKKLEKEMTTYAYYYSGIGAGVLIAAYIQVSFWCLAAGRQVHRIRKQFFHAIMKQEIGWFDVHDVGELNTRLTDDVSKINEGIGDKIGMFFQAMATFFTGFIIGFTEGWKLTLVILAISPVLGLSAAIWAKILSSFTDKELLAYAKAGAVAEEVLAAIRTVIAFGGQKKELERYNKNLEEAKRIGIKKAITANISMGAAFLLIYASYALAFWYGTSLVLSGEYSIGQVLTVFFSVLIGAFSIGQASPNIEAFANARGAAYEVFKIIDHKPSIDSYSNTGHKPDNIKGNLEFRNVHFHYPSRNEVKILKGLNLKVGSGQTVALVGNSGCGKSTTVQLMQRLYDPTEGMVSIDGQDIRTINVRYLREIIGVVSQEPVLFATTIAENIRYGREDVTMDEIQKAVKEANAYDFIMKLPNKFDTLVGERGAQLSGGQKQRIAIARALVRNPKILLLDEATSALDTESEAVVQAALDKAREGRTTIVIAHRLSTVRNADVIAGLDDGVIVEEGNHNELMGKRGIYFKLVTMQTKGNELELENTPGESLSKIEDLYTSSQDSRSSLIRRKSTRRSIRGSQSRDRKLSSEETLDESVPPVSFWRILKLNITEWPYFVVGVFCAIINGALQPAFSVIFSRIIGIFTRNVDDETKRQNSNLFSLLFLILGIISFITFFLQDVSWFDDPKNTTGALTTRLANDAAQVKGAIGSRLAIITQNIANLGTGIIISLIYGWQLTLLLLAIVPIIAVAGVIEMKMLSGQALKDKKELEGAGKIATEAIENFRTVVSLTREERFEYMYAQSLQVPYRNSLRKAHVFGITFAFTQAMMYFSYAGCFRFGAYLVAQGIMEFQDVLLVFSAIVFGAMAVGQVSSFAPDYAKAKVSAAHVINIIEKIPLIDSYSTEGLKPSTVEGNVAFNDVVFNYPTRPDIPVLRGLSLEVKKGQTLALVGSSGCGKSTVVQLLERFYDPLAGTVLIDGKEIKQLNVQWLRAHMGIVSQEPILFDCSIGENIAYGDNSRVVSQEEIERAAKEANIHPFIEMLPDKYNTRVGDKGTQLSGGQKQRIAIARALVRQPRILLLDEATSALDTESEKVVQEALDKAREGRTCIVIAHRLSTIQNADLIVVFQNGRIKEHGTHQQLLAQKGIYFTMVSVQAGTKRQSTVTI

## CCCCCCCCCCCCCCC(CCC)C(=O)O (stereo not drawn) [DP-3,14, 2-propylhexadecanoic acid]
P-glycoprotein [1]; Example 4, 0.08 and 0.16 mg/ml, 60 min
  Cellular accumulation of vincristine compared with verapamil: more pronounced than the same effect induced by verapamil
P-glycoprotein [1]; Example 5, 0.001, 0.005 or 0.01 mg/ml, 60 min
  Increase in vincristine uptake compared with verapamil: lower than that observed with verapamil
P-glycoprotein [1]; Example 5, 0.02 or 0.08 mg/ml, 60 minute incubation
  Vincristine accumulation in the cells relative to that caused by verapamil: 2-3 fold
[2]; 0.01 mg/ml, 48 hours incubation
  Paracellular breakdown (opening of the tight junctions) of endothelial cells: no paracellular breakdown
[2]; Example 4, 0.08 mg/ml, 60 min
  Sucrose permeability of the monolayer: 274%
[2]; Example 4, 0.16 mg/ml, 60 min
  Sucrose permeability of the monolayer: 266%
[2]; Example 4, […], 60 min
  Sucrose permeability of the monolayer: 278%
[2]; Example 5, 0.001 mg/ml
  Sucrose permeability of the monolayer (significant decrease): 66%
[2]; Example 5, 0.005 mg/ml
  Sucrose permeability of the monolayer (significant decrease): 68%
[2]; Example 5, 0.01 mg/ml
  Sucrose permeability of the monolayer: No change
[2]; Example 5, 0.02 mg/ml, 60 min
  Sucrose permeability of the monolayer: 452%
[2]; Example 5, 0.08 mg/ml, 60 min
  Sucrose permeability of the monolayer: 574%
[2]; Example 5 conclusion, 0.001—0.01 mg/ml
  Transport of sucrose (paracellular marker): no increase
P-glycoprotein [3]; Example 4, even with lowest concentration 0.08 mg/ml, similar to control without cells
  Clearance of vincristine: significant clearance
P-glycoprotein [3]; Example 5, 0.001 mg/ml
  Transport of vincristine: significant increase
P-glycoprotein [3]; Example 5, 0.02 and 0.08 mg/ml
  Transport of vincristine: Larger effects
P-glycoprotein [3]; Example 5 conclusion, low concentration 0.001—0.01 mg/ml
  Transport of vincristine: increase

## CCCCCCCC(CCCCCCC)C(=O)O [DP-7,7, 2-heptylnonanoic acid]
MES-SA/Dx5 cells; 3.125 μg/ml
  % Toxicity: 0.1%

## C#CCC(CCCCCCCCCCCC)C(=O)O (stereo not drawn) [DP-3-yl,12, 2,3-propynyltetradecanoic acid]
MES-SA/Dx5 cells; 3.125 μg/ml
  % Toxicity: 0.48%

## CC[C@]1(O)C[C@H]2CN(CCc3c([nH]c4ccccc34)[C@@](C(=O)OC)(c3cc4c(cc3OC)N(C=O)[C@H]3[C@@](O)(C(=O)OC)[C@H](OC(C)=O)[C@]5(CC)C=CCN6CC[C@]43[C@@H]65)C2)C1 [vincristine, [γ-^3H]Vincristine sulphate, reference compound]
[2]; Example 4, 50 nM vincristine, verapamil 25 μM
  Toxicity for the endothelial cells / integrity of the monolayers: not toxic
[2]; Example 4, with 50 nM vincristine
  Permeability coefficient for [14C]-sucrose (Pesucrose): 1.33±0.08 ×10^−3 cm/min

## COc1cccc2c1C(=O)c1c(O)c3c(c(O)c1C2=O)C[C@@](O)(C(=O)CO)C[C@@H]3O[C@H]1C[C@H](N)[C@H](O)[C@H](C)O1 [Dox, doxorubicin, reference compound]
MES-SA/Dx5 cells; 0.125 μg/ml
  % Toxicity: 0%
MES-SA/Dx5 cells; calibration experiments
  Concentration up to which MES-SA/Dx5 cells are resistant: ≤ 250 ng/mL

## CCCCCCCCCCC(CCC)C(=O)O (stereo not drawn) [DP-3,10, 2-propyldodecanoic acid]
MES-SA/Dx5 cells; 12.5 μg/ml
  % Toxicity: 0.1%
